Measured values reported in patent US5998437A, “Benzimidazole derivatives” (Otsuka Pharmaceutical Co., Ltd., priority 1995, dated 1999).

How the values were obtained:
cGMP-PDE = target: T1, cGMP-PDE (Homo sapiens, UniProt O76074); experiment: Activity for inhibiting cGMP PDE (PDE partially purified from human platelets, FI fraction); assay type: biochemical; settings: 0.4 μM of [3H]-cGMP
T1 construct: Separation and partial purification of PDE (phosphodiesterase) from human platelets; from tissue; host or cells: human platelets (supernatant, DEAE-cellulose FI fraction)
Protocol: (1) Measurement of the Activity for Inhibiting cGMP PDE
Separation and partial purification of PDE (phosphodiesterase) from human platelets, and measurement of the activity for inhibiting cGMP PDE were conducted by the method of Hidaka, et al. [Biochimica et Biophysica Acta, Vol. 429, (1976), pp. 485-497]. The platelets obtained from human healthy adult were washed, and suspended in TRIS-buffer solution, then said suspension was treated by centrifugal separation, the supernatant was subjected to a DEAE-cellulose treatment and fractionated into FI to FIII fractions by a method of concentration gradient of sodium acetate. Thus obtained FI fraction was used as the sample of cGMP-PDE. The activity for inhibiting cGMP-PDE was measured by using 0.4 μM of [^3 H]-cGMP.

[1] = system: chronic contactive dermatitis; experiment: Activity for inhibiting chronic contactive dermatitis (TNCB, ear pinna); assay type: in vivo, Balb/c strain male mouse; settings: for Thickness of ear pinna (×10 μm): control 137.1 ± 6.2, 8 animals; for Inhibition rate (%): ear pinna thickness
Protocol: (5) Determination of the Activity for Inhibiting Chronic Contactive Dermatitis
The activity for inhibiting chronic contactive dermatitis [J. Dermatol. Sci., Vol. 8, (1994), page 54] which is analogous to atopic dermatitis being reported by Kitagaki, et al. was discussed by using the method as follows. The right-side ear pinna of Balb/c strain male mouse was subjected to antigen sensitization by coating with 20 μl of acetone solution of 1% trinitrochlorobenzene (TNCB). 7 Days after the antigen sensitization, the same right-side pinna was subjected to antigen induction by coating with 20 μl of 1% TNCB acetone solution. The treatment of antigen induction was repeated in every 2 days so as to induced chronic contactive dermatitis. In this test, increase of thickness of the right-side ear pinna was induced by passing into a chronic state of the contactive dermatitis. The test compound was dissolved in acetone-methanol (4:1 by v/v) and 20 μl of this solution was administered by coating on the right-side of ear pinna once a day from 24th day after the antigen induction for 2 weeks. As to the control, the only the solvent was similarly administered. The antigen induction by the test compound during administration period was conducted at 30 minutes before the administration. The thickness of the ear pinna of 14th day after the administration was measured by a dial thickness gauge.

[2] = 0.1% coated once a day for 2 weeks

O=C(Nc1ccc2c(ccn2CCCn2ccnc2)c1)c1nc2ccc(Cl)cc2n1Cc1ccccc1 [Example 3, 1-benzyl-6-chloro-2-{1-[3-(imidazol-1-yl)propyl]indol-5-ylamino-carbonyl}benzimidazole]
IC50 (cGMP-PDE): 0.01 µM | Thickness of ear pinna (×10 μm) [1, 2]: 120.4 ± 5.3 ×10 μm | Thickness of ear pinna (×10 μm) ([1]; 0.3% coated once a day for 2 weeks): 105.0 ± 7.2 ×10 μm | Thickness of ear pinna (×10 μm) ([1]; 1.0% coated once a day for 2 weeks): 64.5 ± 1.6 ×10 μm | Inhibition rate (%) [1, 2]: 12% | Inhibition rate (%) ([1]; 0.3% coated once a day for 2 weeks, * p < 0.01 vs control, Dunnett's test): 23% | Inhibition rate (%) ([1]; 1.0% coated once a day for 2 weeks, * p < 0.01 vs control, Dunnett's test): 53%
